Test results as given in patent US8389440B2, “Synergistic insecticide mixtures” (Bayer Cropscience AG, priority 2002, dated 2013).

What was measured:
[1] = tested on: Heliothis armigera caterpillars; assay: Heliothis armigera test; assay type: in vivo; conditions: found effect, dipped soya bean shoots
[2] = tested on: mustard beetle larvae (Phaedon cochleariae); assay: Phaedon larvae test; assay type: in vivo; conditions: found effect, dipped cabbage leaves
[3] = tested on: army worm caterpillars (Spodoptera frugiperda); assay: Spodoptera frugiperda test; assay type: in vivo; conditions: found effect, dipped cabbage leaves
Text: Spodoptera Frugiperda Test

[4] = tested on: diamond-back moth caterpillars (Plutella xylostella, resistant strain); conditions: found effect, dipped cabbage leaves
Method: Plutella Test, Resistant Strain
After the desired period, the destruction in % is determined. 100% means that all of the caterpillars have been destroyed; 0% means that no caterpillars have been destroyed.

Compound | LC50 after 6 days [1] [ppm] | LC95 after 3 days [2] [ppm] | LC50 after 6 days [3] [ppm] | LC50 after 6 days [4] [ppm]
CC[C@H](C)[C@H]1O[C@]2(C=C[C@@H]1C)C[C@@H]1C[C@@H](C/C=C(\C)[C@@H](O[C@H]3C[C@H](OC)[C@@H](O[C@H]4C[C@H](OC)[C@@H](O)[C@H](C)O4)[C@H](C)O3)[C@@H](C)/C=C/C=C3\CO[C@@H]4[C@H](O)C(C)=C[C@@H](C(=O)O1)[C@]34O)O2 [Avermectin, abamectin] | 0.014 | 0.281 | 5.553 | 
CN/C(=N\[N+](=O)[O-])NCC1CCOC1 (centres unmarked) [Dinotefuran, dinotefuran] | 13.165 | 42.07 | 2.861 | 27.621
emamectin benzoate |  |  |  | 0.174
